Measured values: publication PMC5981210, “Molecular recognition of wood polyphenols by phase II detoxification enzymes of the white rot Trametes versicolor” (Scientific Reports, 2018)
Each block holds one compound with its values, some of them ahead of it.

How the values were obtained:
TvGSTO6S = target: T1, TvGSTO6S (Trametes versicolor, UniProt A0A384E158); test: thermal shift assay, SYPRO Orange; format: binding; conditions: 100 µM ligand, 10 µM protein, Tris-HCl pH 8
T1 construct: produced in E. coli Rosetta2 DE3 pLysS; homodimer; serine-type omega GST
T1 sequence (A0A384E158 1-246): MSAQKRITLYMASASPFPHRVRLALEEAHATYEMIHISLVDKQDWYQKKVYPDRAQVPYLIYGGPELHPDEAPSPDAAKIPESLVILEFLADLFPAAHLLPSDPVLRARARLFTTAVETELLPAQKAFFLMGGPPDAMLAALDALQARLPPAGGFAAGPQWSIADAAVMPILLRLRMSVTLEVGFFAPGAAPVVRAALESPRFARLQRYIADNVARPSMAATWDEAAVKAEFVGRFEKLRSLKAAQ
Description: thermal shift assay, SYPRO Orange on TvGSTO6S

TvGSTO1S = target: T2, TvGSTO1S (Trametes versicolor, UniProt R7S9J3); test: thermal shift assay, SYPRO Orange; format: binding; conditions: 100 µM ligand, 10 µM protein, Tris-HCl pH 8
T2 construct: gene TRAVEDRAFT_75639; produced in E. coli Rosetta2 DE3 pLysS
T2 sequence (R7S9J3 1-256): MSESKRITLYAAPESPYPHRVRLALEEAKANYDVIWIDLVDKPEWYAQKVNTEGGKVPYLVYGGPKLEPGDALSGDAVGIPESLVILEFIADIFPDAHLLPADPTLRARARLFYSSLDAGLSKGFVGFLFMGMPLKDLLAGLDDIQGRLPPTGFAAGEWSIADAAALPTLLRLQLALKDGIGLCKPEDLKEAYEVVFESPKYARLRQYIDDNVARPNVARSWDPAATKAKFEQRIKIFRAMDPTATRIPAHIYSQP
Description: thermal shift assay, SYPRO Orange on TvGSTO1S

TvGSTO5S = target: T3, TvGSTO5S (Trametes versicolor, UniProt R7S6M8); test: thermal shift assay, SYPRO Orange; format: binding; conditions: 100 µM ligand, 10 µM protein, Tris-HCl pH 8
T3 construct: gene TRAVEDRAFT_54358; produced in E. coli Rosetta2 DE3 pLysS
T3 sequence (R7S6M8 1-241): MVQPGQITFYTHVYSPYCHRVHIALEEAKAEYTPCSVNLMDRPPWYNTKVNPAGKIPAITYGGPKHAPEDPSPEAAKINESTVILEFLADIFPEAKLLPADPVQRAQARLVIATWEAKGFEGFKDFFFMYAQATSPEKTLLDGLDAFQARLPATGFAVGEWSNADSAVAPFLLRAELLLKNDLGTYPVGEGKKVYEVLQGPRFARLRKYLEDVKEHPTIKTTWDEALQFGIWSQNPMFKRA
Description: thermal shift assay, SYPRO Orange on TvGSTO5S

TvGSTO2S = target: T4, TvGSTO2S (Trametes versicolor, UniProt A0A452CSY5); test: thermal shift assay, SYPRO Orange; format: binding; conditions: 100 µM ligand, 10 µM protein, Tris-HCl pH 8
T4 construct: gene TRAPUB_12770; produced in E. coli Rosetta2 DE3 pLysS
T4 sequence (A0A452CSY5 1-239): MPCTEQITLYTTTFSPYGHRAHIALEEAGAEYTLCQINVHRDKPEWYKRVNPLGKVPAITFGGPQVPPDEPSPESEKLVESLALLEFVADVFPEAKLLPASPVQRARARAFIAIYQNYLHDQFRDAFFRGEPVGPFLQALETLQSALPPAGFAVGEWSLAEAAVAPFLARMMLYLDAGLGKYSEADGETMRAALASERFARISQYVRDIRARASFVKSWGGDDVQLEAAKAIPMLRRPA
Description: thermal shift assay, SYPRO Orange on TvGSTO2S

TvGSTO3S = target: T5, TvGSTO3S (Trametes versicolor, UniProt A0A384E145); test: inhibition of GSH-transferase activity, mixed model fit; format: biochemical; conditions: PEITC 25–300 µM as substrate, 1 mM GSH, 100 mM phosphate pH 6.4, 25 °C
T5 construct: produced in E. coli Rosetta2 DE3 pLysS; homodimer; serine-type omega GST
T5 sequence (A0A384E145 1-240): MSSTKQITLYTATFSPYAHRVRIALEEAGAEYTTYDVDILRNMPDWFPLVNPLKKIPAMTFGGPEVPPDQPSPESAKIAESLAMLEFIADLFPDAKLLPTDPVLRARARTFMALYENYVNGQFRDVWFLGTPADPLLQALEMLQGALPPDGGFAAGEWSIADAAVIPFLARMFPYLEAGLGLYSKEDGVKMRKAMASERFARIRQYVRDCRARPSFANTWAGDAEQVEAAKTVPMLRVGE

[1] = target: Trametes versicolor glutathione transferase Omega 3S (TvGSTO3S) (Trametes versicolor); test: crystal structure; TvGSTO3S (13 mg/mL) crystallised by microbatch under oil at 278 K; 30% (w/v) PEG 400, 0.2 M calcium acetate, 0.1 M acetate buffer pH 4.5; apo and ligand complexes; homodimer in the crystal
[2] = target: Trametes versicolor glutathione transferase Omega 6S (TvGSTO6S) (Trametes versicolor); test: crystal structure; TvGSTO6S (26 mg/mL) crystallised by hanging drop with seeding; 25% (w/v) PEG 1500, 0.1 M MMT buffer pH 6.5; apo and naringenin complex ('dry soaking'); homodimer in the crystal

Compound: O=C(c1ccc(O)cc1O)c1ccc(O)cc1O [2,2′,4,4′-Tetrahydroxy benzophenone]
TvGSTO6S (TvGSTO6S): 3.40 °C
TvGSTO1S (TvGSTO1S): 3.74 °C

Compound: O=C(c1ccccc1)c1ccc(O)c(O)c1O [2,3,4-Trihydroxy benzophenone]
TvGSTO6S (TvGSTO6S): 4.15 °C
TvGSTO5S (TvGSTO5S): -12.89 °C
TvGSTO2S (TvGSTO2S): 2.92 °C

Compound: O=C(c1ccc(O)cc1)c1ccc(O)cc1O [2,4,4′-Trihydroxy benzophenone]
TvGSTO1S (TvGSTO1S): 2.74 °C

Compound: O=C(c1ccccc1)c1ccc(O)cc1O [2,4-Dihydroxy benzophenone]
TvGSTO2S (TvGSTO2S): 2.56 °C

Compound: Trametes versicolor glutathione transferase Omega 3S (TvGSTO3S) (enzyme)
stoichiometry N [1]: 2

Continued, values first:

Ki (TvGSTO3S): 2.89 ± 1.24 µM
Compound: COc1c(O)cc(O)c2c(=O)cc(-c3ccccc3)oc12 [wogonin]

stoichiometry N [2]: 2
Compound: Trametes versicolor glutathione transferase Omega 6S (TvGSTO6S) (enzyme)
